Results published in ChEMBL document CHEMBL1146846, “Discovery of protein-protein binding disruptors using multi-component condensations small molecules” (Bioorg Med Chem Lett, 2006).
Activity calls are given as the source filed them. No cut-off for these calls is given here.

What was measured:
Neuropilin-1 = Neuropilin-1 (Homo sapiens, UniProt O14786); assay: Inhibition of VEGF165-NRP1 interaction by ELISA
PC-3 [1] = assay: Inhibition of PC3 cell migration; type: functional, cell-based; conditions: Homo sapiens
PC-3 [2] = assay: Toxicity against PC3 cell line by LDH-release assay; type: cell-based; conditions: human

Sequence of Neuropilin-1 (O14786 whole entry): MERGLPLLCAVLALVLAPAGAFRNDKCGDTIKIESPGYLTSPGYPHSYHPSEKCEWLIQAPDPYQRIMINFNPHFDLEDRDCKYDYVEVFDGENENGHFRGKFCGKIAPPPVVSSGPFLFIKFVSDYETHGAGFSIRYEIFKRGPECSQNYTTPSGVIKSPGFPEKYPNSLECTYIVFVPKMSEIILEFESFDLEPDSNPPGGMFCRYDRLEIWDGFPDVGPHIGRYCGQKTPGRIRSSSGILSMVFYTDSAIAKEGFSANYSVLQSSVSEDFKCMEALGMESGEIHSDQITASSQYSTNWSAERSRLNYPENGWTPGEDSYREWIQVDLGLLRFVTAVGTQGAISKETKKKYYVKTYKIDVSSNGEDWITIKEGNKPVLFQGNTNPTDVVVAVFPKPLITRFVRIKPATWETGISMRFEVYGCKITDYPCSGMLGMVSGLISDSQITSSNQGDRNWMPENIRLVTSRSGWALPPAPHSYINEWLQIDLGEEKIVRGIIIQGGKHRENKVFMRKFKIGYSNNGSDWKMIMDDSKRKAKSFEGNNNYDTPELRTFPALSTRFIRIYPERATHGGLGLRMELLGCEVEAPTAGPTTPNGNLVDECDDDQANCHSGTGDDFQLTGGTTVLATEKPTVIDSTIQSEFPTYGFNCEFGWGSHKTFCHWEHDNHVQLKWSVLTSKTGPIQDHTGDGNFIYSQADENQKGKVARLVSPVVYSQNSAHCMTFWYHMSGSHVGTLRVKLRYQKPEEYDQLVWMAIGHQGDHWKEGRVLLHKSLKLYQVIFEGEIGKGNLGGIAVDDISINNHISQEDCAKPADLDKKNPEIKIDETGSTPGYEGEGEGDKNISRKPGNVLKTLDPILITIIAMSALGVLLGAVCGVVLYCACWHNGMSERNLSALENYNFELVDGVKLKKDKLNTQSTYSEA

SMILES	IC50 (Neuropilin-1)	other results
COC(=O)CSc1cccc2c(C#N)c(-c3ccccc3)c(NC3CCCCC3)n12		Activity (Neuropilin-1): inactive
Cc1ccc(C)c(-c2c(C#N)c3cccc(Cl)n3c2NCCc2ccccc2)c1	6 µM	
N#Cc1c(-c2ccccc2)c(NCCc2ccc(Cl)cc2)n2c(Cl)cccc12	4 µM	
CCN(CC)CCNc1c(-c2ccccc2)c(C#N)c2cccc(Cl)n12		Activity (Neuropilin-1): inactive
N#Cc1c(-c2ccccc2)c(N)n2c(Cl)cccc12		Activity (Neuropilin-1): inactive
Cc1cccc(C)c1Nc1c(-c2ccccc2)c(C#N)c2cccc(Cl)n12	60 µM	
CN(C)CCCOc1ccc(-c2c(C#N)c3cccc(Cl)n3c2NCCc2ccccc2)cc1	10 µM	
Cc1ccc(-c2c(C#N)c3cccc(Cl)n3c2NCCc2ccccc2)cc1	5 µM	
N#Cc1c(-c2ccccc2)c(NCCc2ccccc2)n2c(Cl)cccc12	2 µM	IC50 (PC-3 [1]): 21 µM; Activity (PC-3 [2]): Non-toxic
N#Cc1c(-c2ccncc2)c(NCCc2ccccc2)n2c(Cl)cccc12	6 µM	
N#Cc1c(-c2ccccc2)c(NC2CCCCC2)n2c(Cl)cccc12	29 µM	IC50 (PC-3 [1]): 72 µM; Activity (PC-3 [2]): Non-toxic
N#Cc1c(-c2cccnc2)c(NCCc2ccccc2)n2c(Cl)cccc12	4 µM	
CN(CCNc1c(-c2ccccc2)c(C#N)c2cccc(Cl)n12)Cc1ccccc1	4 µM	
CSc1cccc2c(C#N)c(-c3ccccc3)c(NC3CCCCC3)n12		Activity (Neuropilin-1): inactive
N#Cc1c(-c2ccccc2F)c(NCCc2ccccc2)n2c(Cl)cccc12	3 µM	
N#Cc1c(-c2ccccc2)c(NC(=O)c2ccccc2)n2c(Cl)cccc12		Activity (Neuropilin-1): inactive

SMILES	IC50 (Neuropilin-1)	other results
CN(C)CCNc1cccc2c(C#N)c(-c3ccccc3)c(NC3CCCCC3)n12	42 µM	
N#Cc1c(-c2ccnc3ccccc23)c(NCCc2ccccc2)n2c(Cl)cccc12		Activity (Neuropilin-1): inactive
N#Cc1c(-c2cccc(F)c2)c(NCCc2ccccc2)n2c(Cl)cccc12	2 µM	IC50 (PC-3 [1]): 8 µM; Activity (PC-3 [2]): Non-toxic
N#Cc1c(C2CCCCC2)c(NCCc2ccccc2)n2c(Cl)cccc12		Activity (Neuropilin-1): inactive
N#Cc1c(-c2ccccc2)c(NCCc2ccccc2Cl)n2c(Cl)cccc12	3 µM	IC50 (PC-3 [1]): 23 µM; Activity (PC-3 [2]): Non-toxic
CC(=O)Nc1c(-c2ccccc2)c(C#N)c2cccc(Cl)n12		Activity (Neuropilin-1): inactive
N#Cc1c(-c2ccccc2)c(NC2CCCCC2)n2c(F)cccc12		Activity (Neuropilin-1): inactive
N#Cc1c(-c2cccc(Cl)c2)c(NCCc2ccccc2)n2c(Cl)cccc12	3 µM	
N#Cc1c(-c2ccccc2)c(NC2CCCCC2)n2c(SCC(=O)O)cccc12		Activity (Neuropilin-1): inactive
N#Cc1c(-c2ccccc2)c(NCCN)n2c(Cl)cccc12	43 µM	
CN(C)CCCOc1cccc2c(C#N)c(-c3ccccc3)c(NC3CCCCC3)n12	79 µM	
N#Cc1c(-c2ccccc2Cl)c(NCCc2ccccc2)n2c(Cl)cccc12	3 µM	
COc1ccccc1-c1c(C#N)c2cccc(Cl)n2c1NCCc1ccccc1	3 µM	
COc1ccc(CNc2c(-c3ccccc3)c(C#N)c3cccc(Cl)n23)c(OC)c1		Activity (Neuropilin-1): inactive
N#Cc1c(-c2ccccc2)c(NCC(=O)NCc2ccco2)n2c(Cl)cccc12	19 µM	IC50 (PC-3 [1]): 54 µM; Activity (PC-3 [2]): Non-toxic

More lines, main results first:

IC50 (Neuropilin-1)	SMILES	other results
5 µM	N#Cc1c(-c2ccc(F)cc2)c(NCCc2ccccc2)n2c(Cl)cccc12	
4 µM	N#Cc1c(-c2ccc(F)c3ccccc23)c(NCCc2ccccc2)n2c(Cl)cccc12	
13 µM	N#Cc1c(CCO)c(NCCc2ccccc2)n2c(Cl)cccc12	
80 µM	N#Cc1c(-c2ccccc2)c(Nc2cccc(N)c2)n2c(Cl)cccc12	
3 µM	CSc1ccc(-c2c(C#N)c3cccc(Cl)n3c2NCCc2ccccc2)cc1	
9 µM	COCCNc1c(-c2ccccc2)c(C#N)c2cccc(Cl)n12	
5 µM	COc1ccc(-c2c(C#N)c3cccc(Cl)n3c2NCCc2ccccc2)cc1	
2 µM	N#Cc1c(-c2ccccn2)c(NCCc2ccccc2)n2c(Cl)cccc12	
95 µM	N#Cc1c(C2CCNCC2)c(NCCc2ccccc2)n2c(Cl)cccc12	
47 µM	CN(C)c1ccc(Nc2c(-c3ccccc3)c(C#N)c3cccc(Cl)n23)cc1	
14 µM	CC(C)(C)c1ccc(-c2c(C#N)c3cccc(Cl)n3c2NCCc2ccccc2)cc1	
2 µM	N#Cc1c(-c2ccc(Cl)cc2)c(NCCc2ccccc2)n2c(Cl)cccc12	
13 µM	N#Cc1c(-c2ccc(OC(F)(F)F)cc2)c(NCCc2ccccc2)n2c(Cl)cccc12	
13 µM	N#Cc1c(-c2ccccc2)c(NCc2ccc(Cl)c(Cl)c2)n2c(Cl)cccc12	
22 µM	Cc1cnc(-c2c(C#N)c3cccc(Cl)n3c2NCCc2ccccc2)s1	
2 µM	COc1cccc(-c2c(C#N)c3cccc(Cl)n3c2NCCc2ccccc2)c1	
10 µM	N#Cc1c(-c2ccccc2S)c(NCCc2ccccc2)n2c(Cl)cccc12	
2 µM	N#Cc1c(CCc2ccccc2)c(NCCc2ccccc2)n2c(Cl)cccc12	
62 µM	CN(C)CCCNc1c(-c2ccccc2)c(C#N)c2cccc(Cl)n12	
6 µM	N#Cc1c(-c2cccc(S)c2)c(NCCc2ccccc2)n2c(Cl)cccc12	
9 µM	Cc1ccccc1-c1c(C#N)c2cccc(Cl)n2c1NCCc1ccccc1	
